The source of these data is ChEMBL document CHEMBL1127033, “Synthesis and anti-HIV-1 activity of a series of imidazo[1,5-b]pyridazines” (J Med Chem, 1993).

Assay [1] relates to MT4. Put plainly: Inhibition of growth in uninfected MT-4 cells in MTM assay. Particulars: Homo sapiens. The format is functional, cell-based.
Assay [2] addresses T1, Human immunodeficiency virus type 1 reverse transcriptase (Human immunodeficiency virus 1, UniProt Q72547). Put plainly: In vitro inhibitory concentration against reverse transcriptase of HIV-1 (RT).
In assay [3] the test system is C8166. Put plainly: Inhibition of p24 antigen formation in infected C8166-cells. The class given is functional, cell-based. The settings on record: Homo sapiens.
Assay [4] deals with C8166. In words: Inhibition of syncytia formation in infected C8166-cells. The class given is functional, cell-based. The settings on record: Homo sapiens.
The test system of assay [5] is Human immunodeficiency virus 1. In words: (§1) Inhibition of HIV-1 (strain A17)-infected MT-4 cells. The class given is functional, organism-based. Particulars: Human immunodeficiency virus 1, MT4.
The target of assay [6] is T1, Human immunodeficiency virus type 1 reverse transcriptase. Put plainly: Inhibition of reverse transcriptase of HIV-1 (strain RF)-infected MT-4 cells in RPMI 1640 growth medium in MTM assay; Toxic. The class given is cell-based. Particulars: mt4.
Assay [7] relates to MT4. Described as §1. The class given is functional, cell-based. The settings on record: Homo sapiens.
Assay [8] has as its target T1, Human immunodeficiency virus type 1 reverse transcriptase. In words: Inhibition of reverse transcriptase activity of HIV-1 in the presence of [alpha35 S] TTP as cosubstrate.

Several values for one entry are separate records, joined by “and”; a condition that tells them apart may be missing. Identical values can stand only once. Bounds are passed on as bounds.

In the case of `COc1ccc2c(C)nc(CCCCCCC(=O)c3ccccc3)n2n1`, the IC50 (in general, the concentration needed to halve the response being measured) was found to be 250000 nM in the assay on MT4 [1] and 640 nM in assay [2].
Regarding `CSc1ccc2c(C)nc(CCCCCCC(=O)c3ccccc3)n2n1`, the half-inhibitory concentration (IC50) with MT4 [1] was 27000 nM; in assay [2], 80 nM.
Consider `Cc1nc(CCCCCCC(O)c2ccccc2)n2nc(-n3ccnc3)ccc12` (stereo unspecified), for which the EC50 (usually the concentration needed to bring the measured effect to its halfway point) amounted to 4 nM in the assay on C8166 [3] and 6 nM in the assay with C8166 [4]. Also, the IC50 worked out at 26000 nM with MT4 [1] and 230 nM in assay [2].
`Cc1nc(CCCCCCC(=O)c2ccccc2)n2nc(-n3ccnc3C)ccc12`: the IC50 in the assay with MT4 [1] stood at 260000 nM; in assay [2] it was 2500 nM.
`CCc1nc(CCCCCCC(=O)c2ccccc2)n2nc(Cl)ccc12`: the 50% inhibitory concentration (IC50) with MT4 [1] stood at 25000 nM; in assay [2], 2000 nM.
With `Cc1nc(CCCCCOC(=O)C2CCCC2)n2nc(Cl)ccc12`, the figures for the 50% inhibitory concentration (IC50) (in the assay on MT4 [1]; in assay [2]) were 250000 nM and 22000 nM, respectively.
For the molecule `Cc1nc(CCCCCC(=O)c2ccccc2)n2nc(Cl)ccc12`, the IC50 came out at 250000 nM with MT4 [1] and 4800 nM in assay [2].
For `Cc1nc(CCCCCCC(=O)c2ccccc2)n2nc(Cl)ccc12`, the half-maximal effective concentration (EC50) in the assay on C8166 [3] and in the assay on C8166 [4] was 80 nM in each case. Besides, the results for the concentration for half-maximal inhibition (IC50) (with MT4 [1]; in assay [2]) were 25000 nM and 840 nM, respectively.
Consider `CNc1ccc2c(C)nc(CCCCCCC(=O)c3ccccc3)n2n1`, for which the figures for the half-inhibitory concentration (IC50) (in the assay with MT4 [1]; in assay [2]) were 25000 nM and 3400 nM, respectively.
Regarding `Cc1nc(CCCCCCC(O)c2ccccc2)n2nc(Cl)ccc12` (stereo unspecified), the 50% effective concentration (EC50) in the assay with C8166 [3] and in the assay on C8166 [4] was less than 80 nM throughout. The concentration for half-maximal inhibition (IC50) worked out at 250000 nM in the assay on MT4 [1] and 380 nM in assay [2].
For `O=C(CCCCCCc1ncc2ccc(Cl)nn12)c1ccccc1`, the values for the EC50 with C8166 [3] and in the assay on C8166 [4] were 340 nM and 210 nM, respectively. In addition, the half-maximal inhibitory concentration (IC50) worked out at 25000 nM in the assay with MT4 [1] and 340 nM in assay [2].
Turning to `Cc1nc(CCCCCCC(=O)c2ccccc2)n2nc(-n3cccc3)ccc12`, the 50% effective concentration (EC50) in the assay with C8166 [3] was found to be 5 nM; with C8166 [4], 7 nM. The concentration for half-maximal inhibition (IC50) in the assay on MT4 [1] was determined as 26000 nM; in assay [2], 80 nM.
In the case of `Cc1nc(CCCCCCC(=O)c2ccccc2)n2nc(-n3cncn3)ccc12`, the IC50 with MT4 [1] was 26000 nM; in assay [2], 100 nM.
`CC(=O)OCCCCCc1nc(C)c2ccc(Cl)nn12` came in with an IC50 in assay [2] of 110000 nM.
`Cc1nc(CCCCCCC(=O)c2ccccc2)n2nc(-n3cnnc3)ccc12`: the IC50 was found to be 260000 nM with MT4 [1] and 2600 nM in assay [2].
For `Cc1nc(CCCCCCCC(=O)c2ccccc2)n2nc(Cl)ccc12`, the half-maximal inhibitory concentration (IC50) in the assay with MT4 [1] worked out at 250000 nM; in assay [2], 3000 nM.
As for `Cc1cn(-c2ccc3c(C)nc(CCCCCCC(=O)c4ccccc4)n3n2)cn1`, the values for the EC50 with C8166 [3] and in the assay with C8166 [4] were 160 nM and 65 nM, respectively. Moreover, the IC50 in the assay with MT4 [1] turned out to be 260000 nM; in assay [2], 550 nM.
`Cc1nc(CCCCCCC(=O)c2ccccc2)n2nc(N3CCCCC3)ccc12` registered an IC50 in assay [2] of 6700 nM.
Consider `Cc1nc(CCCCCC(=O)Cc2ccccc2)n2nc(Cl)ccc12`, for which the IC50 in the assay on MT4 [1] stood at 28000 nM; in assay [2] it was 3900 nM.
Regarding `Cc1nc(CCCCCO)n2nc(Cl)ccc12`, the IC50 in assay [2] is more than 100000 nM.
Regarding `Cc1nc(CCCCCCC(=O)c2ccccc2)n2nc(-n3ccnc3)ccc12`, the EC50 in the assay on C8166 [3] was 5 nM; with C8166 [4], 0.6 nM; in assay [5] it was 1900 nM. Also, the IC50 in the assay on MT4 [1] came out at 26000 nM; in assay [2] it was 0.6 nM.
For `Cc1nc(CCCCCCC(=O)c2ccccc2)n2nc(-n3cccn3)ccc12`, the IC50 with MT4 [1] came out at 26000 nM; in assay [2], 3400 nM.
With `Cc1nc(CCCCCOC(=O)c2ccccc2)n2nc(Cl)ccc12`, the concentration giving a half-maximal response (EC50) in the assay with C8166 [3] stood at 1100 nM; with C8166 [4], 1600 nM. The IC50 in the assay with MT4 [1] was more than 25000 nM; in assay [2], 1340 nM and 1300 nM.
On to `Cc1nc(CCCCCCC(=O)c2ccccc2)n2nc(-n3nccn3)ccc12`, for which the half-inhibitory concentration (IC50) with MT4 [1] is 260000 nM; in assay [2] it was 1300 nM.
With `Cc1nc(CCCCCCC(=O)c2ccccc2)n2nc(N)ccc12`, the half-inhibitory concentration (IC50) with MT4 [1] stood at 30000 nM; in assay [2] it was 3000 nM.
On to `Cc1nc(CCCCCCC(=O)c2ccccc2)n2ncccc12`, for which the IC50 worked out at 280000 nM in the assay with MT4 [1] and 560 nM in assay [2].
Taken in the same sequence, the figures for `Cc1nc(CCCCCCCc2ccccc2)n2nc(Cl)ccc12` were 250000 nM and 14000 nM.
For the molecule `Cc1nc(CCCCCCC(=O)c2ccccc2)n2nc(N3CCCC3)ccc12`, the IC50 with MT4 [1] was less than 30 nM; in assay [2] it was 50 nM. Moreover, the EC50 result in assay [6] is reported as “Toxic”.
`Cc1nc(CCCCCCC(=O)c2ccccc2)n2nc(N(C)C)ccc12`: the figures for the IC50 (in the assay with MT4 [1]; in assay [2]) were 27000 nM and 270 nM, respectively.
In the case of `CC(C)c1nc(CCCCCCC(=O)c2ccccc2)n2nc(Cl)ccc12`, in assay [2], inhibition was half-maximal at 110000 nM (IC50).
As to `Cc1nc(CCCCCCC(=O)c2ccccc2)n2nc(-n3cncc3C)ccc12`, the concentration giving a half-maximal response (EC50) is 30 nM with C8166 [3] and 10 nM with C8166 [4]. Moreover, the results for the IC50 (in the assay on MT4 [1]; in assay [2]) were 26000 nM and 100 nM, respectively.
With `Cc1nc(CCCCCCC(=O)c2ccccc2)n2nc(-n3ccnn3)ccc12`, the IC50 with MT4 [1] amounted to 26000 nM; in assay [2], 640 nM.
With `Cc1nc(CCCCCOCc2ccccc2)n2nc(Cl)ccc12`, the EC50 was found to be 380 nM in the assay on C8166 [3] and 580 nM in the assay on C8166 [4]. The half-maximal inhibitory concentration (IC50) with MT4 [1] turned out to be 290000 nM; in assay [2], 2300 nM.
For `CCc1cc(NCc2nc3c(Cl)ccc(Cl)c3o2)c(O)nc1C` [L-697661], the concentration for a half-maximal effect (EC50) in the assay on C8166 [3] was 7 nM; in the assay with C8166 [4] it was 7 nM; in the assay on MT4 [7], more than 10000 nM. For the same molecule, the half-inhibitory concentration (IC50) in assay [8] came to 850 nM.
Turning to `Cc1cn([C@H]2C[C@H](N=[N+]=[N-])[C@@H](CO)O2)c(=O)[nH]c1=O` [ZIDOVUDINE], the EC50 in the assay with C8166 [3] was found to be 20 nM; in the assay with C8166 [4], 30 nM; in assay [5], 10 nM.
